Our source for the TGI and GI50 values is PubChem BioAssay (NCI).

Among the test systems are ACHN renal; UACC-62 melanoma; HL-60(TB) leukemia; OVCAR-5 ovarian; OVCAR-4 ovarian; OVCAR-3 ovarian; OVCAR-8 ovarian; SNB-19 CNS; SK-MEL-2 melanoma; UO-31 renal.
What all share (experiment): NCI-60 cell line screen, 48 h

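Protocol summary: plate cells (96-well), add compound at 5 concentrations, incubate 48 h, interpolate endpoints linearly. Abbreviation: GI50, concentration required for 50% inhibition of growth. At the TGI there is no net growth.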

For the compound `CCOP(=O)(Nc1ccc2oc(=O)c3ccccc3c2c1)OCC`, the TGI in the assay on ACHN renal is more than 100 µM; with UACC-62 melanoma, more than 100 µM; with HL-60(TB) leukemia, 55.8 µM; in the assay on OVCAR-5 ovarian, more than 100 µM; in the assay on OVCAR-4 ovarian, more than 100 µM; in the assay with OVCAR-3 ovarian, more than 100 µM. Also, the TGI in the assay on OVCAR-8 ovarian, with SNB-19 CNS and with SK-MEL-2 melanoma was more than 100 µM each time.
With `O=C1CN(/N=C/c2ccc(-c3ccc(F)cc3)o2)C(=O)N1`, the TGI in the assay on ACHN renal, in the assay on UACC-62 melanoma, with HL-60(TB) leukemia, in the assay with OVCAR-5 ovarian, in the assay with OVCAR-3 ovarian and in the assay with OVCAR-8 ovarian was more than 100 µM in each case. Also, the TGI in the assay with UO-31 renal, in the assay on SNB-19 CNS and in the assay with SK-MEL-2 melanoma was more than 100 µM each time.
For the compound `N[C@@H]1CCCC[C@@H]1N.O=P([O-])([O-])CN(CP(=O)([O-])[O-])CP(=O)([O-])[O-].[Pt+2]`, the GI50 in the assay on ACHN renal, in the assay on UACC-62 melanoma, with HL-60(TB) leukemia, in the assay on OVCAR-4 ovarian, in the assay on OVCAR-3 ovarian and with OVCAR-8 ovarian was more than 100 µM each time. Further, the GI50 in the assay on UO-31 renal, with SNB-19 CNS and in the assay with SK-MEL-2 melanoma was more than 100 µM in each case. Moreover, the TGI in the assay with ACHN renal, in the assay on UACC-62 melanoma, with HL-60(TB) leukemia, with OVCAR-4 ovarian, in the assay with OVCAR-3 ovarian and in the assay with OVCAR-8 ovarian was more than 100 µM each time. In addition, the TGI in the assay on UO-31 renal, in the assay on SNB-19 CNS and with SK-MEL-2 melanoma was more than 100 µM throughout.
For the compound `C[N+](C)(C)CC1CCCC(C[N+](C)(C)C)C1O` (stereo not given), the TGI in the assay on ACHN renal, in the assay on UACC-62 melanoma, in the assay with HL-60(TB) leukemia, in the assay on OVCAR-5 ovarian, in the assay with OVCAR-4 ovarian and with OVCAR-3 ovarian was more than 100 µM throughout. Further, the TGI in the assay with OVCAR-8 ovarian, in the assay on UO-31 renal and in the assay on SK-MEL-2 melanoma was more than 100 µM throughout.
On to `OCNCCNc1nc2ccccc2c2[nH]c3ccccc3c12`, for which the GI50 in the assay on ACHN renal is 0.38 µM; in the assay on UACC-62 melanoma, 2 µM; in the assay with HL-60(TB) leukemia, 1.31 µM; with OVCAR-5 ovarian, 0.582 µM; with OVCAR-3 ovarian, 1.31 µM; with OVCAR-8 ovarian it was 0.809 µM. Further, the GI50 in the assay with UO-31 renal was 2.98 µM; in the assay on SNB-19 CNS it was 2.1 µM; in the assay on SK-MEL-2 melanoma it was 2.25 µM. In addition, the TGI in the assay with ACHN renal is 2.24 µM; in the assay on UACC-62 melanoma, 7.5 µM; in the assay with HL-60(TB) leukemia, 3.93 µM; in the assay on OVCAR-5 ovarian, 6.75 µM; with OVCAR-3 ovarian, 3.67 µM; with OVCAR-8 ovarian, 8.41 µM. In addition, the TGI was more than 50 µM in the assay with UO-31 renal, 11.7 µM in the assay on SNB-19 CNS and 24 µM with SK-MEL-2 melanoma.
For `COc1cc([N+](=O)[O-])c2ncccc2c1[N+](=O)[O-]`, the GI50 is 4.75 µM in the assay with ACHN renal; 12 µM with UACC-62 melanoma; 3.39 µM with HL-60(TB) leukemia; 16.4 µM with OVCAR-5 ovarian; 1.82 µM in the assay with OVCAR-4 ovarian; 2.68 µM in the assay on OVCAR-3 ovarian. Further, the values for the GI50 in the assay on OVCAR-8 ovarian, in the assay with SNB-19 CNS and with SK-MEL-2 melanoma were 4.33 µM, 15.9 µM and 4.17 µM, respectively. In addition, the TGI in the assay on ACHN renal was 16.5 µM; in the assay on UACC-62 melanoma, 25.1 µM; in the assay on HL-60(TB) leukemia it was more than 100 µM; with OVCAR-5 ovarian, 31.1 µM; in the assay on OVCAR-4 ovarian, 3.37 µM; in the assay with OVCAR-3 ovarian it was 6.72 µM. Moreover, the TGI in the assay on OVCAR-8 ovarian stood at 15.9 µM; in the assay with SNB-19 CNS, 30.8 µM; in the assay on SK-MEL-2 melanoma, 12.3 µM.
Regarding `CN1CCN(c2nc(-c3ccncc3)nc3sc4c(c23)CCCCCC4)CC1`, the GI50 with ACHN renal was 7.99 µM; with UACC-62 melanoma, 11 µM; in the assay on HL-60(TB) leukemia, 12.6 µM; in the assay on OVCAR-5 ovarian, 10.8 µM; in the assay with OVCAR-4 ovarian, 12.7 µM; in the assay with OVCAR-3 ovarian, 13.5 µM. The GI50 is 12.2 µM in the assay on OVCAR-8 ovarian, 1.57 µM with UO-31 renal and 14.6 µM with SK-MEL-2 melanoma. Moreover, the TGI is 20.5 µM in the assay with ACHN renal; 24 µM in the assay on UACC-62 melanoma; 29.8 µM with HL-60(TB) leukemia; 22.9 µM in the assay with OVCAR-5 ovarian; 28 µM with OVCAR-4 ovarian; 27 µM in the assay on OVCAR-3 ovarian. The TGI with OVCAR-8 ovarian came to 26.3 µM; in the assay with UO-31 renal, 8.85 µM; in the assay with SK-MEL-2 melanoma, 28.2 µM.
Take `COc1cc2cc3c4c(cc(OC)c(OC)c4c2cc1OC)CCN3C(=O)CCC(=O)NCCCN(C)C`: the TGI with ACHN renal is more than 100 µM; in the assay on UACC-62 melanoma it was more than 100 µM; in the assay on HL-60(TB) leukemia it was 56.9 µM; in the assay on OVCAR-4 ovarian, more than 100 µM; in the assay on OVCAR-3 ovarian, more than 100 µM; in the assay with OVCAR-8 ovarian it was more than 100 µM. Moreover, the TGI with UO-31 renal is more than 100 µM; in the assay on SNB-19 CNS it was more than 100 µM; in the assay with SK-MEL-2 melanoma it was 41.9 µM.
In the case of `COc1ccc2nc3ccccc3c(NCCCCN(C)CCCl)c2c1`, the TGI in the assay on ACHN renal worked out at 0.132 µM; in the assay on UACC-62 melanoma, 0.305 µM; in the assay with HL-60(TB) leukemia, 0.0435 µM; in the assay with OVCAR-5 ovarian, 1.08 µM; in the assay with OVCAR-4 ovarian it was 0.843 µM; in the assay with OVCAR-3 ovarian, 0.712 µM. Besides, the values for the TGI in the assay with UO-31 renal, in the assay with SNB-19 CNS and in the assay with SK-MEL-2 melanoma were 1.22 µM, 0.707 µM and 0.666 µM, respectively.
Consider `CCSC(SCC)=C1C(=O)N(c2ccccc2)N=C1C`, for which the TGI in the assay on ACHN renal is 29.4 µM; in the assay on UACC-62 melanoma, 28 µM; in the assay with HL-60(TB) leukemia it was 7.35 µM; with OVCAR-5 ovarian it was 29.9 µM; in the assay with OVCAR-3 ovarian, 20.2 µM; in the assay on OVCAR-8 ovarian, 24.4 µM. Moreover, the TGI in the assay on UO-31 renal turned out to be 29 µM; in the assay with SNB-19 CNS, 62.8 µM; in the assay with SK-MEL-2 melanoma it was 33 µM.
With `Cc1nc(-n2nc(-c3ccccc3)cc2-c2ccccc2)sc1C(/C=C/c1ccc([N+](=O)[O-])cc1)=N/NC(=O)c1ccncc1`, the TGI was more than 100 µM with ACHN renal; 81.1 µM in the assay with UACC-62 melanoma; 36.7 µM in the assay on HL-60(TB) leukemia; more than 100 µM in the assay on OVCAR-5 ovarian; 42.5 µM in the assay on OVCAR-3 ovarian; more than 100 µM in the assay on OVCAR-8 ovarian. The TGI in the assay with UO-31 renal was 90.4 µM; in the assay on SNB-19 CNS, more than 100 µM; in the assay on SK-MEL-2 melanoma it was 66.1 µM.
